# From patent US8877707B2, “Inhibitors of HCV NS5A” (Presidio Pharmaceuticals, Inc., priority 2010, dated 2014)
# System: HCV genotype 1b replicon in Huh 7 cells
# Assay: HCV replicon assay (1b_Huh-Luc/Neo-ET cell line, luciferase readout)
# Format: cell-based
# Details: Hepatitis C virus, Huh-7; HCV 1b replicon; read-out: Inhibition of HCV genotype 1b
# Procedure, shortened: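 Replicon level was read as luciferase signal after 72 h compound exposure, triplicate wells, starting the day after cells were plated. Cell line: 1b_Huh-Luc/Neo-ET. Values normalised to control as percent, and EC50 fitted with a variable-slope sigmoid; determinations repeated.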
row,Structure (SMILES),EC50
1,COC(=O)N[C@H](C(=O)N1CCC[C@H]1c1ncc(-c2ccc(-c3ccc4cc(-c5cnc([C@@H]6CSCN6C(=O)[C@@H](NC(=O)OC)C(C)C)[nH]5)ccc4c3)cc2)[nH]1)C(C)C [compound 451],< 1 nM
2,COC(=O)N[C@H](C(=O)N1CCC[C@H]1c1ncc(-c2ccc3nc(-c4ccc(-c5cnc([C@@H]6CCCN6C(=O)[C@H](NC(=O)OC6CCOCC6)c6ccccc6)[nH]5)c(F)c4)ccc3c2)[nH]1)C(C)C [compound 452],< 1 nM
3,COC(=O)N[C@H](C(=O)N1CCC[C@H]1c1ncc(-c2ccc3nc(-c4ccc(-c5cnc([C@@H]6CCCN6C(=O)[C@H](NC(=O)OC)c6ccccc6)[nH]5)c(F)c4)ccc3c2)[nH]1)C(C)C [compound 453],< 1 nM
4,COC(=O)N[C@H](C(=O)N1CCC[C@H]1c1ncc(-c2ccc3nc(-c4ccc(-c5cnc([C@@H]6CCCN6C(=O)[C@@H](NC(=O)OC)C6CCOCC6)[nH]5)c(F)c4)ccc3c2)[nH]1)C(C)C [compound 454],< 1 nM
5,COC(=O)N[C@H](C(=O)N1CCCC[C@H]1c1ncc(-c2ccc(-c3ccc4cc(-c5cnc([C@@H]6CCCN6C(=O)[C@@H](NC(=O)OC)C(C)C)[nH]5)ccc4n3)cc2)[nH]1)C(C)C [compound 455],< 1 nM
6,COC(=O)N[C@H](C(=O)N1CCCC[C@H]1c1ncc(-c2ccc(-c3ccc4cc(-c5cnc([C@@H]6CCCN6C(=O)[C@@H](NC(=O)OC)C6CCOCC6)[nH]5)ccc4n3)cc2)[nH]1)C1CCOCC1 [compound 456],< 1 nM
7,COC(=O)N[C@@H](C(=O)N1CCCC[C@H]1c1ncc(-c2ccc(-c3ccc4cc(-c5cnc([C@@H]6CCCN6C(=O)[C@H](NC(=O)OC)c6ccccc6)[nH]5)ccc4n3)cc2)[nH]1)c1ccccc1 [compound 457],< 1 nM
8,O=C(N[C@@H](C(=O)N1CCCC[C@H]1c1ncc(-c2ccc(-c3ccc4cc(-c5cnc([C@@H]6CCCN6C(=O)[C@H](NC(=O)OC6CCOCC6)c6ccccc6)[nH]5)ccc4n3)cc2)[nH]1)c1ccccc1)OC1CCOCC1 [compound 458],< 1 nM
9,COC(=O)N[C@@H](C)C(=O)N1CCC[C@H]1c1ncc(-c2ccc3nc(-c4ccc(-c5cnc([C@@H]6CCCN6C(=O)[C@H](NC(=O)OC)c6ccccc6)[nH]5)c(F)c4)ccc3c2)[nH]1 [compound 459],< 1 nM
10,COC(=O)N[C@H](C(=O)N1CCC[C@H]1c1ncc(-c2ccc3nc(-c4ccc(-c5cnc([C@@H]6CCCN6C(=O)[C@H](NC(=O)OC)c6ccccc6)[nH]5)c(F)c4)ccc3c2)[nH]1)[C@@H](C)OC [compound 460],< 1 nM
11,COC(=O)N[C@H](C(=O)N1CCC[C@H]1c1ncc(-c2ccc3cc(-c4ccc(-c5cnc([C@@H]6CCCN6C(=O)[C@H](NC(=O)OC)c6ccccc6)[nH]5)nn4)ccc3c2)[nH]1)C(C)C [compound 461],< 1 nM
12,COC[C@H](NC(=O)OC)C(=O)N1CCC[C@H]1c1ncc(-c2ccc3cc(-c4ccc(-c5cnc([C@@H]6COCCN6C(=O)[C@@H](NC(=O)OC)c6ccccc6)[nH]5)cc4)ccc3c2)[nH]1 [compound 462],< 1 nM
13,COC[C@H](NC(=O)OC)C(=O)N1CCC[C@H]1c1ncc(-c2ccc(-c3ccc4cc(-c5cnc([C@@H]6CCCN6C(=O)[C@H](COC)NC(=O)OC)[nH]5)ccc4c3)cc2)[nH]1 [compound 463],< 1 nM
14,COC(=O)N[C@@H](C)C(=O)N1CCC[C@H]1c1ncc(-c2ccc3cc(-c4ccc(-c5cnc([C@@H]6CCCN6C(=O)[C@H](NC(=O)OC)c6ccsc6)[nH]5)cc4)ccc3c2)[nH]1 [compound 464],< 1 nM
15,COC[C@H](NC(=O)OC)C(=O)N1CCC[C@H]1c1ncc(-c2ccc3cc(-c4ccc(-c5cnc([C@@H]6CCCN6C(=O)[C@H](NC(=O)OC)c6ccsc6)[nH]5)cc4)ccc3c2)[nH]1 [compound 465],< 1 nM
16,COC(=O)N[C@H](C(=O)N1CCC[C@H]1c1ncc(-c2ccc3cc(-c4ccc(-c5cnc([C@@H]6CCCN6C(=O)[C@H](NC(=O)OC)c6ccsc6)[nH]5)cc4)ccc3c2)[nH]1)C(C)C [compound 466],< 1 nM
17,COC(=O)N[C@@H](CC(C)C)C(=O)N1CCC[C@H]1c1ncc(-c2ccc3nc(-c4ccc(-c5cnc([C@@H]6CCCN6C(=O)[C@H](NC(=O)OC)c6ccccc6)[nH]5)c(F)c4)ccc3c2)[nH]1 [compound 467],< 1 nM
18,COC(=O)N[C@H](C(=O)N1CCC[C@H]1c1ncc(-c2ccc3nc(-c4ccc(-c5cnc([C@@H]6CCCN6C(=O)[C@H](NC(=O)OC)c6ccccc6)[nH]5)c(F)c4)ccc3c2)[nH]1)C1CCCC1 [compound 468],< 1 nM
19,COC(=O)N[C@H](C(=O)N1CCC[C@H]1c1ncc(-c2ccc3nc(-c4ccc(-c5cnc([C@@H]6CN(C(=O)OC)CCN6C(=O)[C@@H](NC(=O)OC)C(C)C)[nH]5)cc4)ccc3c2)[nH]1)C(C)C [compound 469],< 1 nM

# Same assay, conditions: Hepatitis C virus; Table 2; genotype 1b replicon, Huh 7 cells, 72 h, luciferase; read-out: Inhibition of HCV genotype 1b
row,Structure (SMILES),EC50
1,CCC(CC)[C@H](NC(=O)OC)C(=O)N1CCC[C@H]1c1ncc(-c2ccc3nc(-c4ccc5nc([C@@H]6CCCN6C(=O)[C@@H](NC(=O)OC)C(CC)CC)[nH]c5c4)ccc3c2)[nH]1 [compound 382],< 1 nM
2,CC[C@H](C)[C@H](NC(=O)OC)C(=O)N1CCC[C@H]1c1ncc(-c2ccc3nc(-c4ccc5nc([C@@H]6CCCN6C(=O)[C@@H](NC(=O)OC)[C@@H](C)CC)[nH]c5c4)ccc3c2)[nH]1 [compound 383],< 1 nM
3,CC[C@@H](C)[C@H](NC(=O)OC)C(=O)N1CCC[C@H]1c1ncc(-c2ccc3nc(-c4ccc5nc([C@@H]6CCCN6C(=O)[C@@H](NC(=O)OC)[C@H](C)CC)[nH]c5c4)ccc3c2)[nH]1 [compound 384],< 1 nM
4,COC(=O)N[C@H](C(=O)N1CCC[C@H]1c1ncc(-c2ccc3nc(-c4ccc5nc([C@@H]6CCCN6C(=O)[C@@H](NC(=O)OC)C6CC6)[nH]c5c4)ccc3c2)[nH]1)C1CC1 [compound 385],< 1 nM
5,COC(=O)N[C@H](C(=O)N1CCC[C@H]1c1ncc(-c2ccc3nc(-c4ccc5nc([C@@H]6CCCN6C(=O)[C@@H](NC(=O)OC)[C@@H](C)OC)[nH]c5c4)ccc3c2)[nH]1)[C@@H](C)OC [compound 386],< 1 nM
6,COC(=O)N[C@H](C(=O)N1CCC[C@H]1c1ncc(-c2ccc3nc(-c4ccc5nc([C@@H]6CCCN6C(=O)[C@@H](NC(=O)OC)C6CCCCC6)[nH]c5c4)ccc3c2)[nH]1)C1CCCCC1 [compound 388],< 1 nM
7,COC(=O)N[C@H](C(=O)N1CCC[C@H]1c1ncc(-c2ccc3cc(-c4ccc5nc([C@@H]6CCCN6C(=O)[C@@H](NC(=O)OC)C(C)C)[nH]c5c4)nnc3c2)[nH]1)C(C)C [compound 390],< 1 nM
8,COC(=O)N[C@H](C(=O)N1CCC[C@H]1c1ncc(-c2ccc3cc(-c4ccc5nc([C@@H]6CCCN6C(=O)[C@@H](NC(=O)OC)C6CCCC6)[nH]c5c4)nnc3c2)[nH]1)C1CCCC1 [compound 393],< 1 nM
9,CC[C@@H](C)[C@H](NC(=O)OC)C(=O)N1CCC[C@H]1c1ncc(-c2ccc3cc(-c4ccc5nc([C@@H]6CCCN6C(=O)[C@@H](NC(=O)OC)[C@H](C)CC)[nH]c5c4)nnc3c2)[nH]1 [compound 396],< 1 nM
10,COC(=O)N[C@H](C(=O)N1CCC[C@H]1c1ncc(-c2ccc3cc(-c4ccc5nc([C@@H]6CCCN6C(=O)[C@@H](NC(=O)OC)C6CCCCC6)[nH]c5c4)nnc3c2)[nH]1)C1CCCCC1 [compound 400],< 1 nM
11,COC(=O)N[C@H](C(=O)N1CCC[C@H]1c1ncc(-c2ccc3cc(-c4cnc5nc([C@@H]6CCCN6C(=O)[C@@H](NC(=O)OC)C(C)C)[nH]c5c4)ccc3c2)[nH]1)C(C)C [compound 402],1 to 9.9 nM
12,COC(=O)N[C@H](C(=O)N1CCC[C@H]1c1ncc(-c2ccc3cc(-c4cnc5nc([C@@H]6CCCN6C(=O)[C@@H](NC(=O)OC)C6CCCC6)[nH]c5c4)ccc3c2)[nH]1)C1CCCC1 [compound 403],< 1 nM
13,CC[C@H](C)[C@H](NC(=O)OC)C(=O)N1CCC[C@H]1c1ncc(-c2ccc3cc(-c4cnc5nc([C@@H]6CCCN6C(=O)[C@@H](NC(=O)OC)[C@@H](C)CC)[nH]c5c4)ccc3c2)[nH]1 [compound 404],< 1 nM
14,CC[C@@H](C)[C@H](NC(=O)OC)C(=O)N1CCC[C@H]1c1ncc(-c2ccc3cc(-c4cnc5nc([C@@H]6CCCN6C(=O)[C@@H](NC(=O)OC)[C@H](C)CC)[nH]c5c4)ccc3c2)[nH]1 [compound 405],< 1 nM
15,COC(=O)N[C@H](C(=O)N1CCC[C@H]1c1ncc(-c2ccc3cc(-c4cnc5nc([C@@H]6CCCN6C(=O)[C@@H](NC(=O)OC)C6CC6)[nH]c5c4)ccc3c2)[nH]1)C1CC1 [compound 406],< 1 nM
16,COC(=O)N[C@H](C(=O)N1CCC[C@H]1c1ncc(-c2ccc3cc(-c4cnc5nc([C@@H]6CCCN6C(=O)[C@@H](NC(=O)OC)C6CCCCC6)[nH]c5c4)ccc3c2)[nH]1)C1CCCCC1 [compound 409],< 1 nM
17,COC(=O)N[C@H](C(=O)N1CCC[C@H]1c1ncc(-c2ccc3cc(-c4cc5[nH]c([C@@H]6CCCN6C(=O)[C@@H](NC(=O)OC)C6CCCC6)nc5cn4)ccc3c2)[nH]1)C1CCCC1 [compound 411],< 1 nM
18,CC[C@H](C)[C@H](NC(=O)OC)C(=O)N1CCC[C@H]1c1ncc(-c2ccc3cc(-c4cc5[nH]c([C@@H]6CCCN6C(=O)[C@@H](NC(=O)OC)[C@@H](C)CC)nc5cn4)ccc3c2)[nH]1 [compound 412],< 1 nM
19,CC[C@@H](C)[C@H](NC(=O)OC)C(=O)N1CCC[C@H]1c1ncc(-c2ccc3cc(-c4cc5[nH]c([C@@H]6CCCN6C(=O)[C@@H](NC(=O)OC)[C@H](C)CC)nc5cn4)ccc3c2)[nH]1 [compound 413],< 1 nM
20,COC(=O)N[C@H](C(=O)N1CCC[C@H]1c1ncc(-c2ccc3cc(-c4cc5[nH]c([C@@H]6CCCN6C(=O)[C@@H](NC(=O)OC)C6CC6)nc5cn4)ccc3c2)[nH]1)C1CC1 [compound 414],< 1 nM
21,COC(=O)N[C@H](C(=O)N1CCC[C@H]1c1ncc(-c2ccc3cc(-c4cc5[nH]c([C@@H]6CCCN6C(=O)[C@@H](NC(=O)OC)[C@@H](C)OC)nc5cn4)ccc3c2)[nH]1)[C@@H](C)OC [compound 415],< 1 nM
22,COC(=O)N[C@H](C(=O)N1CCC[C@H]1c1ncc(-c2ccc3cc(-c4cc5[nH]c([C@@H]6CCCN6C(=O)[C@@H](NC(=O)OC)C6CCCCC6)nc5cn4)ccc3c2)[nH]1)C1CCCCC1 [compound 417],< 1 nM
